Measurements as given in patent US7601716B2, “Pyridopyrazines and derivatives thereof as ALK and c-Met inhibitors” (Cephalon, Inc., priority 2006, dated 2009).

How the values were obtained:
[1] = target: T1, c-Met (cytoplasmic domain) (Homo sapiens, UniProt P08581); assay: c-Met Kinase Assay (ELISA/TRF, PLC-γ substrate); assay type: biochemical; settings: 3 μM ATP (Km level); read-out: c-Met Kinase Inhibition (IC50)
T1 construct: Reactions were initiated with 30 ng/mL c-Met (cytoplasmic domain, Invitrogen Corporation #PV3143); purchased Invitrogen Corporation PV3143
Procedure, shortened: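 c-Met cytoplasmic domain (30 ng/mL) phosphorylates plate-coated GST–PLC-γ for 15 min at 37 °C. Phosphotyrosine detected with Eu-labeled PT66 antibody by time-resolved fluorescence. IC50 from variable-slope sigmoidal fit of % inhibition vs log concentration.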

[2] = target: baculovirus-expressed ALK (Homo sapiens, UniProt Q9UM73); assay: ALK Kinase Assay (ELISA/TRF, PLC-γ substrate); assay type: biochemical; settings: read-out: ALK Kinase Inhibition (IC50); also: 1 µM ATP (Km level)
Procedure, shortened: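 Plates coated with GST-PLC-γ substrate (10 µg/mL in TBS), then reaction started with 30 ng/ml baculovirus-expressed ALK, 15 min at 37 °C. Phosphotyrosine detected by Eu-labeled PT66 antibody and time-resolved fluorescence. IC50 from variable-slope sigmoidal fit of percent inhibition versus log concentration.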

[3] = target: T2, c-Met (phospho-c-Met) in HT29 cells (Homo sapiens, UniProt P08581); assay: c-Met Cellular Activity/Autophosphorylation Assay, HT29 cells; assay type: cell-based; settings: for inhibition at 1 µM: HT-29, 1 μM compound, read-out: c-Met autophosphorylation inhibition score, HT29 Cells (1 μM); for inhibition at 3 µM: HT-29, 3 μM compound, read-out: c-Met autophosphorylation inhibition score, HT29 Cells (3 μM)
T2 construct: endogenous in cells; host or cells: HT29, A549 (HGF-stimulated), GTL-16
Method: (§1) HT29 and GTL-16 cells were serum starved for one hour in media containing 0.05% BSA and varying concentrations of Example compounds (1-10 μM). A549 cells were serum starved overnight in media containing 0.05% BSA then treated for one hour with Example compounds followed by a 15 minute stimulation with 50 ng/mL HGF (Peprotech, Rocky Hill, N.J.), respectively. Samples were resolved by electrophoresis on a 3-8% Tris-Acetate gel (40 ma/gel) and then transferred to a nitrocellulose membrane. Membranes were blocked for one hour at room temperature in Odyssey Blocking Buffer (Licor #927-40000) diluted 1:1 with 1×TBS. Membranes were then co-incubated overnight at 4° C. with primary antibodies [total Met (Cell Signaling, #3127) and Phospho-Met (Biosource, #44-888G) 1:1000 each in Odyssey Blocking Buffer diluted 1:1 with 1×TBS-T 0.05%]. The next day, membranes were washed and co-incubated with secondary antibodies [Goat anti mouse IRDye800 (Rockland, #610-132-121) and Goat anti rabbit Alexa fluor 700 (Molecular Probes, #A21038) 1:10,000] in Odyssey Blocking Buffer diluted 1:1 with 1×TBS-T 0.05% for one hour at room temperature protected from light. Blots were then washed and read on the Odyssey Infrared Imager. Total c-Met signal was visualized at 800 nm detection and phospho-c-Met signal was visualized at 700 nm detection.

[4] = target: T3, c-Met (phospho-c-Met) in A549 cells (Homo sapiens, UniProt P08581); assay: c-Met Cellular Activity/Autophosphorylation Assay, A549 cells (HGF stimulated); assay type: cell-based; settings: 50 ng/mL HGF; for inhibition at 1 µM: 1 μM compound, read-out: c-Met autophosphorylation inhibition score, A549 Cells (1 μM); for inhibition at 3 µM: 3 μM compound, read-out: c-Met autophosphorylation inhibition score, A549 Cells (3 μM)
T3 construct: endogenous in cells; host or cells: HT29, A549 (HGF-stimulated), GTL-16
Method: as §1

[5] = target: T4, NPM-ALK (Homo sapiens, UniProt Q9UM73); assay: ALK Cellular Assay (phospho-NPM-ALK immunoblot / ALK tyrosine phosphorylation ELISA); assay type: cell-based; settings: for inhibition at 1 µM: NPM-ALK, 1 μM compound, read-out: ALK Cellular Activity Inhibition Score at 1 μM
T4 construct: a fusion protein consisting of nucleophosmin (NMP) and the intracellular domain of ALK; the other entry of the earlier key: NPM1 (P06748, Nucleophosmin)
Method: Immunoblotting of phospho-NPM-ALK and total NPM-ALK from cell lysates was carried out according to the protocols provided by the antibody suppliers. In brief, after treatment of Example compounds, cells were lysed in Frak lysis buffer [10 mM Tris, pH 7.5, 1% Triton X-100, 50 mM sodium chloride, 20 mM sodium fluoride, 2 mM sodium pyrophosphate, 0.1% BSA, plus freshly prepared 1 mM activated sodium vanadate, 1 mM dithiothreitol (#165680050, ARCOS Organics, Geel, Belgium), and 1 mM PMSF (#837091, Boehringer Mannheim Biochemicals, Indianapolis, Ind.), protease inhibitors cocktail III (#539134-1Set, Calbiochem, 1:100 dilution)]. After brief sonication, the lysates were cleared by centrifugation, mixed with sample buffer and subjected to SDS-PAGE. Following transfer to membranes, the membranes were blotted with either rabbit phospho-NPM-ALK(Y664) (Cat^#3341) or ALK antibody (Cat^#3342) from Cell Signaling Technology (Beverly, Mass.), and then the HRP-conjugated goat anti-rabbit antibodies (Santa Cruz, Calif.) after washed in TBS/0.2% Tween-20. The protein bands were visualized with ECL Western Blotting detection reagents (RPN2106, Amersham Biosciences, Buckinghamshire, UK) and quantitated with gel-pro analyzer 3.1 software.
To measure ALK tyrosine phosphorylation in cells with an ELISA assay, fluoronunc plates (Cat^#437796, Nalge Nunc, Rochester, N.Y.) were pre-coated with goat anti-mouse IgG, and incubated with the capture mouse ALK antibody (Cat^#35-4300, Zymed, Seattle, Wash.) diluted 1:1000 in Superblock (Pierce, Rockford, Ill.). Following blocking, cell lysates were added to plates and incubated overnight at 4° C. Plates were incubated with the detecting antibody, anti-phospho-ALK (Y664) (Cell Signaling Technology), diluted at 1:2000, followed by incubation with goat anti-rabbit-IgG alkaline phosphatase to amplify the detection. Wells were exposed to the fluorogenic substrate 4-MeUP (#3368-04-5, Calbiochem) and the signal quantified using a CytoFluor® (series 4000) Fluorescence Multi-Well Plate Reader (Applied Biosystems, Foster City, Calif.).

baculovirus-expressed ALK, sequence (Q9UM73 19-1620): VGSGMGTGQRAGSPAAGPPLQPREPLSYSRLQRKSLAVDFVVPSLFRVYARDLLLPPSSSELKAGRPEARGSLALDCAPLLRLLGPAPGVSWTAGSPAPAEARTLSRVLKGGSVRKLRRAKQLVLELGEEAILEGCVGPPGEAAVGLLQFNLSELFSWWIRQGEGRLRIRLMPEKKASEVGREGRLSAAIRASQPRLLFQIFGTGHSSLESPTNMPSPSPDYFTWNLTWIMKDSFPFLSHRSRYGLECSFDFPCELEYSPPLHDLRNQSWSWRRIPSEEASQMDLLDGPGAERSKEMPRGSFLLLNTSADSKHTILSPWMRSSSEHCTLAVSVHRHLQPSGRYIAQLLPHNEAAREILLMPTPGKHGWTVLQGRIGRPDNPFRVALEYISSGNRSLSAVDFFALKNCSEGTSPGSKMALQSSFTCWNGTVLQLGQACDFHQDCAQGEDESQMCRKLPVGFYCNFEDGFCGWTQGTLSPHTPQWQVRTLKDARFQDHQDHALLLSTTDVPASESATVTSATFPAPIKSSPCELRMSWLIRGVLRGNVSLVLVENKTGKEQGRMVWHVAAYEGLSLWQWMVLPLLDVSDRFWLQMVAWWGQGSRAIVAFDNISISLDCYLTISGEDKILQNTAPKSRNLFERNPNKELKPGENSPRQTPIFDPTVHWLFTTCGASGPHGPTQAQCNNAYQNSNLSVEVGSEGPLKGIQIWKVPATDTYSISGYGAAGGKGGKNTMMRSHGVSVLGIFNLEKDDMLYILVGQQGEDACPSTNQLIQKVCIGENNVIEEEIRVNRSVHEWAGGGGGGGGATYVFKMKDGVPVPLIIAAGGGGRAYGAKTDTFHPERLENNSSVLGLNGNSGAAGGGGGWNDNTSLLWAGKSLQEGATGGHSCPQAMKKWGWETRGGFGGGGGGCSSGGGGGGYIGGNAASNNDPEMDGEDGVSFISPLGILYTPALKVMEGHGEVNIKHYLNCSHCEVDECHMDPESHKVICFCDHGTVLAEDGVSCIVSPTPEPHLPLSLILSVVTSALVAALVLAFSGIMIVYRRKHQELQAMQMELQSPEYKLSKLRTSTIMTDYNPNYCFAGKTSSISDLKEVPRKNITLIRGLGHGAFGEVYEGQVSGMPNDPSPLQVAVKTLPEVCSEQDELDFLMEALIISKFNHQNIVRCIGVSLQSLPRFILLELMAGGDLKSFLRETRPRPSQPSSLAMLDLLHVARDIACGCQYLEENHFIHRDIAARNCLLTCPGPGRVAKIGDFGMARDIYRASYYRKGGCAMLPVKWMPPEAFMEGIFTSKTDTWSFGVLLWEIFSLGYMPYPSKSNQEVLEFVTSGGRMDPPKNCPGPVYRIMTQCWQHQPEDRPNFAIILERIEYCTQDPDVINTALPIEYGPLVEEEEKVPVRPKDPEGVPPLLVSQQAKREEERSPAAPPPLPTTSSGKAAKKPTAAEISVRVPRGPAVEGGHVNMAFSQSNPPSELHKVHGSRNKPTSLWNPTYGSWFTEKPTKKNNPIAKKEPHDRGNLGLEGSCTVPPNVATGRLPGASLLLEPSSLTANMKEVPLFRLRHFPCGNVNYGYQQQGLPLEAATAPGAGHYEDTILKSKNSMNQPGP
T1 sequence (P08581 956-1390 limits assumed): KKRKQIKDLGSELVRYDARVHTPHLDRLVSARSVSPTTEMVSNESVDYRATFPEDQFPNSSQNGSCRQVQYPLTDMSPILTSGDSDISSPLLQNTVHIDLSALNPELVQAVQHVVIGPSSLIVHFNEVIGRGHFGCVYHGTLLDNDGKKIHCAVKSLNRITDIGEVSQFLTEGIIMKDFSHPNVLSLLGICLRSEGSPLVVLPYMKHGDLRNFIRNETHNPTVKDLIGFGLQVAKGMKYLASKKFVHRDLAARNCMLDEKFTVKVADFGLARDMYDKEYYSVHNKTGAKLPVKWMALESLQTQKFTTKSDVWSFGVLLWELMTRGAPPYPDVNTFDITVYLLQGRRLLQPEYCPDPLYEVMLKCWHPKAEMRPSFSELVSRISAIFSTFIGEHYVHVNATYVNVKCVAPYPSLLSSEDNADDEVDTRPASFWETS
T4 sequence (Q9UM73 with tags, fused parts or gaps): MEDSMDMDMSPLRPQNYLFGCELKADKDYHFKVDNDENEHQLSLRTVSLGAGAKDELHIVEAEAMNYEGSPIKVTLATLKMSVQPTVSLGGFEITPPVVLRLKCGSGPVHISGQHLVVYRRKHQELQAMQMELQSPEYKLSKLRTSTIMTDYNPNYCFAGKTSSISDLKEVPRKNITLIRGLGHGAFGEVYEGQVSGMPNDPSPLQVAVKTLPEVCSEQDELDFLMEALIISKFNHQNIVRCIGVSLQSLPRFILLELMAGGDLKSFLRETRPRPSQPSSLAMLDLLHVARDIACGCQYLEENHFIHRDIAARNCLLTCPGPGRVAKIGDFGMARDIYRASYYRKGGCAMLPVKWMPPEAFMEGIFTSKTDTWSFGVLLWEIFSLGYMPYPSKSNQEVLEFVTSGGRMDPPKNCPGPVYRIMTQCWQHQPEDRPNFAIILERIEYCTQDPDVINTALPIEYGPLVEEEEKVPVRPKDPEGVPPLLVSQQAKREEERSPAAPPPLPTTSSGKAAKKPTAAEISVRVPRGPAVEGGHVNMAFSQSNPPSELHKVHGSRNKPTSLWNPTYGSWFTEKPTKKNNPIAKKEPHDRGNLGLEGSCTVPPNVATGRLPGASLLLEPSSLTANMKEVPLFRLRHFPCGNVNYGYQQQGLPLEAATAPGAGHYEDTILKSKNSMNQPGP
T2 sequence (P08581 25-1390): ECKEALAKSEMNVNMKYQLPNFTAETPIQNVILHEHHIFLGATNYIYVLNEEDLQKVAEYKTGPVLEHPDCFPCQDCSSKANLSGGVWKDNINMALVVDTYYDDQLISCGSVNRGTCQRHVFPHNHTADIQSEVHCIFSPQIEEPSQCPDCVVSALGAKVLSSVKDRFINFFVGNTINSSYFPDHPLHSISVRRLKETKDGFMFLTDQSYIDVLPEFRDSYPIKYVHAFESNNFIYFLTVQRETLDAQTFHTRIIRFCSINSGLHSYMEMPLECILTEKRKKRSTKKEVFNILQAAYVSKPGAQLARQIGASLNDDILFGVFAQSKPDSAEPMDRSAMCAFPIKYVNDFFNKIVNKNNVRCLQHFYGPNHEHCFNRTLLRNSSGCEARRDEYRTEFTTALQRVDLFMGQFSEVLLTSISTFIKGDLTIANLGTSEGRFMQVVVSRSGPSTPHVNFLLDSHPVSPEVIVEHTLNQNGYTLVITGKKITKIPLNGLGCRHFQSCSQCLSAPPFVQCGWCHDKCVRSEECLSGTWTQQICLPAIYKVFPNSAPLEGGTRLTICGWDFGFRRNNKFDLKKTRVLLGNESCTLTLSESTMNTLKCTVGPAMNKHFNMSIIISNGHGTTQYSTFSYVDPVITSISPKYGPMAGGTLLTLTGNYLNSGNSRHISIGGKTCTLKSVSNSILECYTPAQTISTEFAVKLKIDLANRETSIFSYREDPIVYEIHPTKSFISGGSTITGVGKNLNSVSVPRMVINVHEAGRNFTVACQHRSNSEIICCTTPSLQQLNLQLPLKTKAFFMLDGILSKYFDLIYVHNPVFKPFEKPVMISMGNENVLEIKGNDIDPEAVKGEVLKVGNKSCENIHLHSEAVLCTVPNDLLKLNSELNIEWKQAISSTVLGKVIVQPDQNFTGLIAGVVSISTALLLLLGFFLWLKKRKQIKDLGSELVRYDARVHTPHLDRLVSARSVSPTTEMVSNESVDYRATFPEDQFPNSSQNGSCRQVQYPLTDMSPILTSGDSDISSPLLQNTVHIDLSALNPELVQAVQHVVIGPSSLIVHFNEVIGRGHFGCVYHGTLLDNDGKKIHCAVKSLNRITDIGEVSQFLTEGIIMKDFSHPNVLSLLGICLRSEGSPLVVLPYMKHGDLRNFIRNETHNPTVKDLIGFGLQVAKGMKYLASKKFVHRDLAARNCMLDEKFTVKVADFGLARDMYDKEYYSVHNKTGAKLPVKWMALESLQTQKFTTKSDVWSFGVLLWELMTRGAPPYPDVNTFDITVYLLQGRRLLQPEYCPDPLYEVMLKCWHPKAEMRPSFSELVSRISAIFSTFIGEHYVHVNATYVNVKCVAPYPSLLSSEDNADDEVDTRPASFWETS

Compound	IC50 [1] [µM]	IC50 [2] [µM]	inhibition at 1 µM [3] [%]	inhibition at 3 µM [3] [%]	inhibition at 1 µM [4] [%]	inhibition at 3 µM [4] [%]	IC50 [5] [µM]	melting point	inhibition at 1 µM [5] [%]
O=C(c1ccc(-c2cnc3c(c2)N(Cc2cc(Cl)ccc2Cl)CCN3)cc1)N1CCC(N2CCCC2)CC1 [Example 160, {4-[1-(2,5-Dichlorobenzyl)-1,2,3,4-tetrahydropyrido[2,3-b]pyrazin-7-yl]phenyl}-(4-(pyrrolidin-1-yl)piperidin-1-yl)methanone]	0.1 to 1	< 0.1	26 to 50	26 to 50	0 to 25	0 to 25	≤ 0.25		
O=C(c1ccc(-c2cnc3c(c2)N(Cc2cc(Cl)ccc2C(F)(F)F)CCN3)cc1)N1CCC(N2CCCC2)CC1 [Example 117, {4-[1-(5-Chloro-2-trifluoromethylbenzyl)-1,2,3,4-tetrahydropyrido[2,3-b]pyrazin-7-yl]phenyl}-(4-(pyrrolidin-1-yl)piperidin-1-yl)methanone]	1 to 10	< 0.1	0 to 25	0 to 25			≤ 0.25		
O=C(c1ccc(-c2cnc3c(c2)N(Cc2c(Cl)cccc2Cl)CCN3)cc1)N1CCC[C@H]1CN1CCCC1 [Example 164, {4-[1-(2,6-Dichlorobenzyl)-1,2,3,4-tetrahydropyrido[2,3-b]pyrazin-7-yl]phenyl}-{2-[(pyrrolidin-1-yl)methyl]pyrrolidin-1-yl}methanone]	1 to 10	< 0.1	0 to 25	0 to 25	0 to 25	0 to 25	0.251 to 0.5		
CN1CCN(c2cc(-c3cnc4c(c3)N(Cc3c(F)ccc(F)c3Cl)CCN4)ccn2)CC1 [Example 190, 1-(2-Chloro-3,6-difluorobenzyl)-7-[2-(4-methylpiperazin-1-yl)pyridin-4-yl]-1,2,3,4-tetrahydropyrido[2,3-b]pyrazine]	0.1 to 1	< 0.1			0 to 25	0 to 25	0.501 to 0.75		
O=C(c1ccc(-c2cnc3c(c2)N(Cc2cc(Cl)ccc2Cl)CCN3)cc1)N1CCC[C@H]1CN1CCCC1 [Example 159, S-{4-[1-(2,5-Dichlorobenzyl)-1,2,3,4-tetrahydropyrido[2,3-b]pyrazin-7-yl]phenyl}-{2-[(pyrrolidin-1-yl)methyl]pyrrolidin-1-yl}methanone]	1 to 10	< 0.1	0 to 25	0 to 25	0 to 25	0 to 25	0.251 to 0.5		
O=C(c1ccc(-c2cnc3c(c2)N(Cc2c(F)ccc(F)c2Cl)CCN3)cc1)N1CCC[C@H]1CN1CCCC1 [Example 100, {4-[1-(2-Chloro-3,6-difluorobenzyl)-1,2,3,4-tetrahydropyrido[2,3-b]pyrazin-7-yl]phenyl}-((S)-2-((pyrrolidin-1-yl)methyl)pyrrolidin-1-yl)methanone]	0.1 to 1	< 0.1	0 to 25	0 to 25	0 to 25	0 to 25	≤ 0.25		
O=C(c1ccc(-c2cnc3c(c2)N(Cc2cc(F)ccc2F)CCN3)cc1)N1CCC(N2CCCC2)CC1 [Example 66, {4-[1-(2,5-Difluorobenzyl)-1,2,3,4-tetrahydropyrido[2,3-b]pyrazin-7-yl]phenyl}-(4-(pyrrolidin-1-yl)piperidin-1-yl)methanone]	1 to 10	< 0.1					≤ 0.25	202 to 204 °C	
O=C(NCCN1CCCC1)c1ccc(-c2cnc3c(c2)N(Cc2cc(F)ccc2F)C(=O)CN3)cc1 [Example 58, 4-[1-(2,5-Difluorobenzyl)-2-oxo-1,2,3,4-tetrahydropyrido[2,3-b]pyrazin-7-yl]-N-(2-pyrrolidin-1-yl-ethyl)benzamide]	10 to 100	0.1 to 1						235 °C (dec.)	0 to 25
O=C(c1ccc(-c2cnc3c(c2)N(Cc2c(Cl)cccc2Cl)CCN3)cc1)N1CCC(N2CCCC2)CC1 [Example 163, {4-[1-(2,6-Dichlorobenzyl)-1,2,3,4-tetrahydropyrido[2,3-b]pyrazin-7-yl]phenyl}-(4-(pyrrolidin-1-yl)piperidin-1-yl)methanone]	0.1 to 1	< 0.1	0 to 25	26 to 50	0 to 25	0 to 25	0.751 to 1		
CC(c1c(F)ccc(F)c1Cl)N1CCNc2ncc(-c3ccc(N4CCN(C)CC4)nc3)cc21 (stereo not drawn) [Example 177, 1-[1-(2-Chloro-3,6-difluorophenyl)ethyl]-7-[6-(4-methylpiperazin-1-yl)pyridin-3-yl]-1,2,3,4-tetrahydropyrido[2,3-b]pyrazine]	1 to 10	< 0.1	26 to 50	26 to 50	0 to 25	0 to 25	0.251 to 0.5		
CC(=O)N1CCN(c2cc(-c3cnc4c(c3)N(Cc3cc(Cl)ccc3C(F)(F)F)CCN4)ccn2)CC1 [Example 199, 1-[4-(4-{1-[5-Chloro-2-(trifluoromethyl)benzyl]-1,2,3,4-tetrahydro-pyrido[2,3-b]pyrazin-7-yl}pyridin-2-yl)piperazin-1-yl]ethanone]	1 to 10	< 0.1					≤ 0.25	241 °C	
O=C1CNc2ncc(-c3ccc(NS(=O)(=O)CCN4CCCC4)cc3)cc2N1Cc1cc(F)ccc1F [Example 48, 2-Pyrrolidin-1-yl-ethanesulfonic acid{4-[1-(2,5-difluorobenzyl)-2-oxo-1,2,3,4-tetrahydropyrido[2,3-b]pyrazin-7-yl]phenyl}-amide]	1 to 10	0.1 to 1						> 300 °C	26 to 50
O=C(c1ccc(-c2cnc3c(c2)N(Cc2cc(Cl)ccc2Cl)C(=O)CN3)cc1)N1CCC(N2CCCC2)CC1 [Example 156, 1-(2,5-Dichlorobenzyl)-7-[4-(4-(pyrrolidin-1-yl)piperidine-1-carbonyl)phenyl]-3,4-dihydro-1H-pyrido[2,3-b]pyrazin-2-one]	0.1 to 1	< 0.1					0.251 to 0.5	> 200 °C	
